Reference: US20100298302A1, “NOVEL PROTEIN KINASE MODULATORS” (priority 2009, published 2010)
Where two headings read alike, the source gives them in different places.

Columns and labels:
[1] = test system: K-562 human chronic myelogenous leukemia (CML) cells; assay: Alamar Blue cell proliferation assay, K-562; assay type: cell-based
Procedure: (§1) A representative cell-proliferation assay protocol using Alamar Blue dye (stored at 4° C., use 20 ul per well) is described hereafter.
(§2) a. Split and trypsinize cells.
(§3) b. Count cells using hemocytometer.
(§4) c. Plate 4,000-5,000 cells per well in 100 μl of medium and seed into a 96-well plate according to the following plate layout. Add cell culture medium only to wells B10 to B12. Wells B1 to B9 have cells but no compound added.
(§5) d. Add 100 μl of 2× drug dilution to each well in a concentration shown in the plate layout above. At the same time, add 100 μl of media into the control wells (wells B10 to B12). Total volume is 200 μl/well.
(§6) e. Incubate four (4) days at 37° C., 5% CO2 in a humidified incubator.
(§7) f. Add 20 μl Alamar Blue reagent to each well.
(§8) g. Incubate for four (4) hours at 37° C., 5% CO2 in a humidified incubator.
(§9) h. Record fluorescence at an excitation wavelength of 544 nm and emission wavelength of 590 nm using a microplate reader.
(§10) In the assays, cells are cultured with a test compound for approximately four days, the dye is then added to the cells and fluorescence of […] dye is detected after approximately four hours. Different types of cells can be utilized in the assays (e.g., HCT-116 human colorectal carcinoma cells, PC-3 human prostatic cancer cells, MDA-MB231 human breast cancer cells, K-562 human chronic myelogenous leukemia (CML) cells, MiaPaca human pancreatic carcinoma cells, MV-4 human acute myeloid leukemia cells, and BxPC3 human pancreatic adenocarcinoma cells).

[2] = test system: MDA-MB231 human breast cancer cells; assay: Alamar Blue cell proliferation assay, MDA-MB231; assay type: cell-based; conditions: MDA-MB-231, read-out: MDAMB231 IC50
Procedure: as §1, §2, §3, §4, §5, §6, §7, §8, §9, §10

[3] = test system: MiaPaca human pancreatic carcinoma cells; assay: Alamar Blue cell proliferation assay, MiaPaCa; assay type: cell-based; conditions: MIA PaCa-2
Procedure: as §1, §2, §3, §4, §5, §6, §7, §8, §9, §10

[4] = test system: PC-3 human prostatic cancer cells; assay: Alamar Blue cell proliferation assay, PC3; assay type: cell-based
Procedure: as §1, §2, §3, §4, §5, §6, §7, §8, §9, §10

MV-4-11 = assay: Alamar Blue cell proliferation assay, MV-4-11; assay type: cell-based; conditions: Homo sapiens, MV4-11
Procedure: as §1, §2, §3, §4, §5, §6, §7, §8, §9, §10

recombinant PIM-1 = recombinant PIM-1 (Homo sapiens, UniProt P11309); assay: PIM-1 kinase assay; assay type: biochemical; conditions: for inhibition at 0.5 µM: 500 nM compound, read-out: PIM1: % inh 500 nM
Procedure: The following procedure was used to assay the PIM-1 kinase activity of compounds of the invention. Other methods for assaying PIM-1 and other PIM kinases, as well as methods to assay for activity against various kinases known in the art.
In a final reaction volume of 50 ul, recombinant PIM-1 (1 ng) was incubated with 12 mM MOPS pH 7.0, 0.4 mM EDTA, glycerol 1%, brij 35 0.002%, 2-mercaptoethanol 0.02%, BSA 0.2 mg/ml, 100 uM KKRNRTLTK, 10 mM MgAcetate, 15 uM ATP, [γ-^33P-ATP] (specific activity approx. 500 cpm/pmol), DMSO 4% and test inhibitor compound at the required concentration. The reaction was initiated by the addition of the Magnesium ATP mixture. After 40 min incubation at 23° C., the reactions were quenched by the addition of 100 ul 0.75% Phosphoric acid, and the labeled peptide collected by filtration through a phosphocellulose filter plate. The plate was washed 4 times with 0.075% phosphoric acid (100 ul per well) and then, after the addition of scintillation fluid (20 ul per well), the counts were measured by a scintillation counter.

recombinant human PIM2 = recombinant human PIM2 (Homo sapiens, UniProt Q9P1W9); assay: PIM-2 kinase assay; assay type: biochemical
Procedure: Test compounds dissolved and diluted in DMSO (2 μl) were added to a reaction mixture comprising 10 μl of 5× Reaction Buffer (40 mM MOPS pH 7.0, 5 mM EDTA), 10 μl of recombinant human PIM2 solution (4 ng PIM-2 dissolved in dilution buffer (20 mM MOPS pH 7.0; EDTA 1 mM; 5% Glycerol; 0.01% Brij 35; […]; […] 2-mercaptoethanol; 1 mg/ml BSA)) and 8 ul of water. Reactions were initiated by the addition of 10 ul of ATP Solution ([…] (15 mM MgCl2; 75 uM ATP) 1% ([γ-33P]ATP: Stock 1 mCi/100 μl; 3000 Ci/mmol (Perkin Elmer)) and 10 ul of substrate peptide solution (RSRSSYPAGT, dissolved in water at a concentration of 1 mM), Reactions were maintained for 10 min at 30° C. The reactions were quenched with 100 ul of 0.75% Phosphoric acid, then transferred to and filtered through a Phosphocellulose filter plate (Millipore, MSPH-N6B-50). After washing each well 4 times with 0.75% Phosphoric acid, scintillation fluid (20 uL) was added to each well and the residual radioactivity was measured using a Wallac luminescence counter.

SUM-149PT = assay: Alamar Blue cell proliferation assay, SUM-149PT; assay type: cell-based; conditions: Homo sapiens, SUM149PT
Procedure: as §1, §2, §3, §4, §5, §6, §7, §8, §9, §10

MDA-MB45 = assay: Alamar Blue cell proliferation assay, MDA-MB45; assay type: cell-based
Procedure: as §1, §2, §3, §4, §5, §6, §7, §8, §9, §10

[5] = test system: BxPC3 human pancreatic adenocarcinoma cells; assay: Alamar Blue cell proliferation assay, BxPC3; assay type: cell-based; conditions: BXPC-3
Procedure: as §1, §2, §3, §4, §5, §6, §7, §8, §9, §10

recombinant human CK2 = target: T1, recombinant human CK2 (Homo sapiens, UniProt P68400); assay: cell-free CK2 assay; assay type: biochemical
T1 construct: purchased Upstate
Procedure: Modulatory activity of compounds described herein was assessed in vitro in cell-free CK2 assays by the following method.
Test compounds in aqueous solution were added at a volume of 10 microliters, to a reaction mixture comprising 10 microliters Assay Dilution Buffer (ADB; 20 mM MOPS, pH 7.2, 25 mM beta-glycerolphosphate, 5 mM EGTA, 1 mM sodium orthovanadate and 1 mM dithiothreitol), 10 microliters of substrate peptide (RRRDDDSDDD, dissolved in ADB at a concentration of 1 mM), 10 microliters of recombinant human CK2 (25 ng dissolved in ADB; Upstate). Reactions were initiated by the addition of 10 microliters of ATP Solution (90% 75 mM MgCl2, 75 micromolar ATP dissolved in ADB; 10% [γ-^33P]ATP (stock 1 mCi/100 μl; 3000 Ci/mmol (Perkin Elmer) and maintained for 10 minutes at 30 degrees C. The reactions were quenched with 100 microliters of 0.75% phosphoric acid, then transferred to and filtered through a phosphocellulose filter plate (Millipore). After washing each well 5 times with 0.75% phosphoric acid, the plate was dried under vacuum for 5 min and, following the addition of 15 ul of scintilation fluid to each well, the residual radioactivity was measured using a Wallac luminescence counter.

FLT3 = target: T2, FLT3 (Homo sapiens, UniProt P36888); assay: FLT3 inhibition; assay type: biochemical
T2 sequence (P36888 27-993): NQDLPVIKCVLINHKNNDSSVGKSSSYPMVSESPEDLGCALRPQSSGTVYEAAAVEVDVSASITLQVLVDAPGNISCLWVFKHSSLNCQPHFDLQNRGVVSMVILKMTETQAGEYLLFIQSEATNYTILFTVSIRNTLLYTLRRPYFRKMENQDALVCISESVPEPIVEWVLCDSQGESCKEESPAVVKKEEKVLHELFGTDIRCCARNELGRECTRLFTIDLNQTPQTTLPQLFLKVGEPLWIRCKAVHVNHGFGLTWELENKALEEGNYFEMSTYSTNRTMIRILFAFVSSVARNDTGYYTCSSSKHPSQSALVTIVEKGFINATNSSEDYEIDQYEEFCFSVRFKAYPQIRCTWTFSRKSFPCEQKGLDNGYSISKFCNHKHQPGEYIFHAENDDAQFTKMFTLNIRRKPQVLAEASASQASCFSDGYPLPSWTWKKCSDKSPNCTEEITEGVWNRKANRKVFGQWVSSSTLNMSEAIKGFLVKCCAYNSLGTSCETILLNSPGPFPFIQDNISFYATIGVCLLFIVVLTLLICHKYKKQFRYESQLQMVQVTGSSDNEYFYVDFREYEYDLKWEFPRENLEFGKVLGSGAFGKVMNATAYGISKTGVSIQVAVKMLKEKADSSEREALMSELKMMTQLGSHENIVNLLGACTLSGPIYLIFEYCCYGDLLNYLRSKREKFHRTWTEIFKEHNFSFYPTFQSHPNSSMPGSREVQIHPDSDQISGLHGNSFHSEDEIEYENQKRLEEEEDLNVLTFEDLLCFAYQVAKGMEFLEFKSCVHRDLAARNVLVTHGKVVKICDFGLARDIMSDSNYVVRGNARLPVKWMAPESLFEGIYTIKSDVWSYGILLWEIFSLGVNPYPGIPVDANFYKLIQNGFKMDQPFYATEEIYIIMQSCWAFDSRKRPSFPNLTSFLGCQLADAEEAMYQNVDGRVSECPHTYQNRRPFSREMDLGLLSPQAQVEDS

[6] = test system: leukemic cells from AML patients; conditions: cited from earlier work
MV-4-11 (AML) xenograft = MV-4-11 (AML) xenograft model; cited from earlier work
MOLM-13 (AML) xenograft = MOLM-13 (AML) xenograft model; cited from earlier work
[7] = 15 μM ATP, read-out: PIM1: IC50 (15 μM ATP)

Sequence of recombinant human PIM2 (Q9P1W9 whole entry): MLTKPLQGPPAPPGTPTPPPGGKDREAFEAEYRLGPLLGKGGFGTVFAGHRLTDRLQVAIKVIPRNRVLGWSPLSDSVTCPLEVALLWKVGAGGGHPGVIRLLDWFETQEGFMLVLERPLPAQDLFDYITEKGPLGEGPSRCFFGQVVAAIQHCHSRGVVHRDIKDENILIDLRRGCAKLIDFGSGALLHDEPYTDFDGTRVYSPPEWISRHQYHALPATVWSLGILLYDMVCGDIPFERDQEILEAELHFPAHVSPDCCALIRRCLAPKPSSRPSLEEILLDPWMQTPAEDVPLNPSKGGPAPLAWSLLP
Sequence of recombinant PIM-1 (P11309 whole entry): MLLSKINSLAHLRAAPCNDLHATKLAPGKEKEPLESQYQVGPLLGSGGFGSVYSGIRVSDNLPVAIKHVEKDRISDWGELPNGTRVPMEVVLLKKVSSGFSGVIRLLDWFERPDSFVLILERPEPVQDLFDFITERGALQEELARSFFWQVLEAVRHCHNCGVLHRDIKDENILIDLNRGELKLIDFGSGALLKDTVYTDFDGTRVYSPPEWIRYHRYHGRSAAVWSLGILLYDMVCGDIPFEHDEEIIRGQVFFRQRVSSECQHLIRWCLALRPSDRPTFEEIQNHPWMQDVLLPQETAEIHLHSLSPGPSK
T1 sequence (P68400 whole entry): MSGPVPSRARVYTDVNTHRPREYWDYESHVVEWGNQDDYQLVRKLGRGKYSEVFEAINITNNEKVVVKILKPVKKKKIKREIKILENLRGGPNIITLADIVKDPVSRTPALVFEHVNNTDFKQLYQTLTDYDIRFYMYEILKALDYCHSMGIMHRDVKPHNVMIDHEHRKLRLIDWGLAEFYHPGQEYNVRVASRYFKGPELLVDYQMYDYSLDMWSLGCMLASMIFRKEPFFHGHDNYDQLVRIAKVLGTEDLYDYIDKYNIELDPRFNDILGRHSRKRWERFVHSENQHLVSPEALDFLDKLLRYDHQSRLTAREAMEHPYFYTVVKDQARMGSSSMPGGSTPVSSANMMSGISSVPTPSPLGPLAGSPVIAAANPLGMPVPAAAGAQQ
T1 sequence (P67870 whole entry partner): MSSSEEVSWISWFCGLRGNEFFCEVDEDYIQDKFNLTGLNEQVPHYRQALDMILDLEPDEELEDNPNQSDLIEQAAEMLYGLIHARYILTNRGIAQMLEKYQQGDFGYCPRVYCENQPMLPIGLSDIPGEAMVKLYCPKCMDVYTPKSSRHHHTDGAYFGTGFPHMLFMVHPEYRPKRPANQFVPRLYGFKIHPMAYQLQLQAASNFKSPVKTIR

Compound | IC50 ([1]; K562, Table 4) [µM] | IC50 [2] [µM] | IC50 [3] [µM] | IC50 (MV-4-11; Table 4) [µM] | inhibition at 0.5 µM (recombinant PIM-1) [%] | IC50 (recombinant PIM-1; [7]) [µM] | IC50 ([1]; K562, Table 5) [µM] | IC50 (recombinant human PIM2) [µM] | IC50 (SUM-149PT) [µM] | IC50 (MDA-MB45) [µM] | IC50 (MV-4-11; Table 5) [µM] | IC50 [5] [µM] | IC50 (recombinant PIM-1; Table 5, read-out: PIM1 IC50) [µM] | IC50 (recombinant human CK2) [µM] | other results
O=C(O)c1ccc2c(c1)nc(Nc1ccc(F)c(Cl)c1)c1cccn12 | 10.7 | 12 | > 10 | 6.91 | 91.4 | 0.071 | – | – | – | – | – | – | – | – | IC50 [4]: > 10 µM
Clc1ccc(Nc2nc3cc(-c4nnn[nH]4)ccc3n3cccc23)cc1 | > 10 | > 10 | > 10 | > 10 | 57.1 | 0.576 | – | – | – | – | – | – | – | – | –
O=C(NC1CC1)c1cccc2c1nc(Nc1ccccc1F)c1cccn12 | – | – | – | – | – | – | > 10 | < 1 | < 10 | 12 | < 10 | > 30 | < 0.1 | < 1 | –
Oc1cccc(Nc2nc3c(-c4nnc[nH]4)cccc3n3cccc23)c1 | – | – | – | – | – | – | > 10 | < 0.1 | > 30 | 28 | < 5 | ≥ 30 | < 0.1 | < 1 | –
Clc1ccccc1Nc1nc2c(-c3nnc[nH]3)cccc2n2cccc12 | – | – | – | – | – | – | > 10 | < 0.1 | < 5 | < 5 | < 5 | < 10 | < 0.1 | < 0.1 | IC50 (FLT3): > 10 µM
CN(C)C[C@@H]1CCn2cc(c3ccccc32)C2=C(C(=O)NC2=O)c2cn(c3ccccc23)CCO1 [Ly5333′531] | – | – | – | – | – | – | – | – | – | – | – | – | – | – | effect on cell growth and cell death [6]: suppressed cell growth and induced cell death
O=C(O)c1ccc2c(c1)nc(NCC(F)(F)F)c1cccn12 | > 10 | > 10 | > 10 | > 10 | 52.9 | 0.419 | – | – | – | – | – | – | – | – | IC50 [4]: > 30 µM
c1ccc(Nc2nc3c(-c4nnc[nH]4)cccc3n3cccc23)cc1 | – | – | – | – | – | – | > 30 | < 0.1 | > 30 | 15.1 | < 5 | > 30 | < 0.1 | < 0.1 | –
Fc1ccc(Nc2nc3c(-c4nnc[nH]4)cccc3n3cccc23)c(F)c1 | – | – | – | – | – | – | < 10 | < 0.1 | 23.3 | 15.7 | < 5 | 10.2 | < 0.1 | < 0.1 | –
Fc1ccccc1Nc1nc2c(-c3nnc[nH]3)cccc2n2cccc12 | – | – | – | – | – | – | < 10 | < 0.1 | 22.8 | 28.4 | < 5 | > 30 | < 0.1 | < 0.1 | –
CN1CCC(CNc2ccc3ncc(-c4cccc(OC(F)(F)F)c4)n3n2)CC1 [SGI-1776] | – | – | – | – | – | – | – | – | – | – | – | – | – | – | tumor regression (MV-4-11 (AML) xenograft): significant tumor regression; tumor regression (MOLM-13 (AML) xenograft): significant tumor regression
Fc1ccc(Nc2nc3cc(-c4nnn[nH]4)ccc3n3cccc23)cc1Cl | > 10 | > 10 | > 10 | 1.21 | 50.5 | 0.504 | – | – | – | – | – | – | – | – | –
